Data taken from paper PMC5963640 (Journal of Ocular Pharmacology and Therapeutics, 2018).

How the values were obtained:
[1] = tested on: primary porcine TM (PTM) cells; assay: Disruption of actin stress fibers, high-content screening; format: cell-based; conditions: Sus scrofa, 6 h, read-out: PTM IC50 (disruption of actin stress fibers)
[2] = tested on: Formosan Rock monkeys; assay: Ocular tolerability (modified Draize, hyperemia score) in monkeys; conditions: 0.01%, 0.02% and 0.04% solutions, once daily for 3 days
[3] = target: T1, calcium/calmodulin-dependent protein kinase II Alpha (CAMK2A) (Homo sapiens, UniProt Q9UQM7); assay: Kinase-Glo luminescent protein kinase assay, CAMK2A; format: biochemical; conditions: average of ≥3 replicate experiments; read-out: CAM2A Ki
T1 construct: purchased Invitrogen/Life Technologies
T1 sequence (Q9UQM7 whole entry): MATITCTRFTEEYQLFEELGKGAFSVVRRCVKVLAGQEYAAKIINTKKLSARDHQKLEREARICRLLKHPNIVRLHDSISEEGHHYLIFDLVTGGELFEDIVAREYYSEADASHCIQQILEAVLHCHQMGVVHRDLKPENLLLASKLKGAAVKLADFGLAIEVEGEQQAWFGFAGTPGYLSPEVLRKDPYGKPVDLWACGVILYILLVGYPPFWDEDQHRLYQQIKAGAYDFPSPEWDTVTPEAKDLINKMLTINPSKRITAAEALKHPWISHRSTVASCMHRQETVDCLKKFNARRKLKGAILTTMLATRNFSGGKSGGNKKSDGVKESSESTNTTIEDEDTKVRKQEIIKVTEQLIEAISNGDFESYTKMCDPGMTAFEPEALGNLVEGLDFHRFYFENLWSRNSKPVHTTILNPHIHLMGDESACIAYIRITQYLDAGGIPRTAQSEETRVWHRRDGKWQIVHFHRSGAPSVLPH

[4] = tested on: normotensive Dutch Belted rabbits; assay: Ocular hypotensive activity (IOP) in rabbits; conditions: for maximal IOP reduction: once daily, Day 3, at 4 or 8 h after dosing
[5] = target: T2, protein kinase C-theta (PKC-theta) (Homo sapiens, UniProt Q04759); assay: Kinase-Glo luminescent protein kinase assay, PKC-theta; format: biochemical; conditions: average of ≥3 replicate experiments; read-out: PKCT Ki
T2 construct: purchased Invitrogen/Life Technologies
T2 sequence (Q04759 whole entry): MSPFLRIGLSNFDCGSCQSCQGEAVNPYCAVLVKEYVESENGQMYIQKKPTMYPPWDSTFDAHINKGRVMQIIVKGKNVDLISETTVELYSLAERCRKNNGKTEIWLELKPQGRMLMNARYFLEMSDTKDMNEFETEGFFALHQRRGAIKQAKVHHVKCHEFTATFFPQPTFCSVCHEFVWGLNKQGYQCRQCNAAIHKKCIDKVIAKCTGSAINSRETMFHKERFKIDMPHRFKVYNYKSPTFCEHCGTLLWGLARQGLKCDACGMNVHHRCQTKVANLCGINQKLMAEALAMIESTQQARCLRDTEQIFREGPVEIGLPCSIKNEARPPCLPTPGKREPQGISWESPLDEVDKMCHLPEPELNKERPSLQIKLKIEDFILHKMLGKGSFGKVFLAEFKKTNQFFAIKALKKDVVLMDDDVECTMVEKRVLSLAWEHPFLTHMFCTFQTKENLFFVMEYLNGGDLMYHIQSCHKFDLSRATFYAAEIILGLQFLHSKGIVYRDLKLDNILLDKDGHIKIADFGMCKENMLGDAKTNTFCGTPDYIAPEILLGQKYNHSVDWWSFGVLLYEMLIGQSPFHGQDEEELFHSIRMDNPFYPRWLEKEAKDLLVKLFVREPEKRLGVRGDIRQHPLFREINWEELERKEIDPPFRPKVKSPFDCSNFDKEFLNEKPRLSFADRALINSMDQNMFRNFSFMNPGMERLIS

[6] = In vitro corneal metabolism, monkey; format: in vitro ADME, cynomolgus monkeys; conditions: corneal tissue punches, 37°C, pH 6.5, read-out: t1/2 of corneal metabolism
Method: (§1) Enucleated pig eyes (n = 3) were harvested at a local abattoir, stored on ice, and used within 4 h of slaughter. For eyes harvested from beagle dogs (n = 3; Calvert Laboratories, Pittston, PA), Dutch Belted rabbits (n = 3; Robinson Services, Mockesville, NC), and cynomolgus monkeys (n = 4; Covance, Madison, WI), intact globes were stored in K-Sol corneal preservation buffer[31] under cold conditions and used within 24 h of sacrifice. Human corneas (n = 3) were acquired from The Eye Bank for Sight Restoration (New York, NY). The weights of the corneal punches were approximately the same for the dog, pig, human, and rabbit, whereas monkey corneal punches were approximately half of the weight of the others. Corneal punches were stored in phosphate-buffered saline and used within 1 h of preparation.
(§2) Samples were incubated at 37°C and reactions were subsequently terminated at appropriate time intervals by transferring a 100 μL aliquot of solution to an equal volume of cold acetonitrile followed by thorough trituration. The samples were centrifuged at 10,000 g for 10 min and the supernatants analyzed by high performance liquid chromatography (HPLC) using a Waters Alliance 2695 HPLC (Milford, MA) equipped with a Symmetry C18 4.6 × 75 mm 3.5 μm column.

[7] = tested on: Dutch Belted rabbits; assay: Ocular tolerability (modified Draize, hyperemia score) in rabbits; conditions: 0.005%, 0.01%, 0.02% and 0.04% solutions
[8] = In vitro corneal metabolism, human; format: in vitro ADME; conditions: corneal tissue punches, 37°C, pH 6.5, read-out: t1/2 of corneal metabolism
Method: as §1, §2

[9] = tested on: transformed human TM (HTM) cells (TM-1); assay: Disruption of focal adhesions, high-content screening; format: cell-based; conditions: 6 h, read-out: HTM IC50 (disruption of focal adhesions)
[10] = tested on: patients; parameters: method as in PMID 25270273; conditions: 0.02% once daily in the evening, Day 7 and 28 morning visits; cited from earlier work
[11] = In vitro corneal metabolism, pig; format: in vitro ADME; conditions: corneal tissue punches, 37°C, pH 6.5, read-out: t1/2 of corneal metabolism
Method: as §1, §2

[12] = Absorption and distribution of radioactivity after single topical ocular dose; format: in vivo, Dutch Belted rabbits; conditions: male, Dutch Belted, rabbit, in vivo
Method: A single topical ocular dose of 0.02% ^14C-netarsudil mesylate (35 μL drop) was administered to both eyes of 3 male Dutch Belted rabbits in each of 7 groups. At 0.25, 0.5, 1, 4, 8, 24, and 48 h postdose, the following samples were harvested from each group: whole blood, derived plasma, AH, vitreous humor, cornea, conjunctiva, lens, iris/ciliary body, retina-choroid-plexus, liver, and kidneys. All samples were assayed for total radioactivity. A study of the same design was conducted for AR-12286, using a single topical ocular dose of 0.5% ^3H-AR-12286 (35 μL drop).

[13] = Ocular metabolism: levels in aqueous humor after topical ocular dosing; format: in vivo, New Zealand rabbits
Method: In groups 1 and 2, the test article was dosed only once, and 100 μL samples of AH were taken from each eye by paracentesis at 4 or 6 h postdose, respectively. In groups 3 and 4, the test article was dosed once daily for 3 or 4 days, respectively, and 100 μL samples of AH were taken 4 h after dosing.

[14] = target: norepinephrine transporter (NET) (Homo sapiens, UniProt P23975); assay: NET inhibitory activity (data not shown)
norepinephrine transporter (NET), sequence (P23975 whole entry, species assumed): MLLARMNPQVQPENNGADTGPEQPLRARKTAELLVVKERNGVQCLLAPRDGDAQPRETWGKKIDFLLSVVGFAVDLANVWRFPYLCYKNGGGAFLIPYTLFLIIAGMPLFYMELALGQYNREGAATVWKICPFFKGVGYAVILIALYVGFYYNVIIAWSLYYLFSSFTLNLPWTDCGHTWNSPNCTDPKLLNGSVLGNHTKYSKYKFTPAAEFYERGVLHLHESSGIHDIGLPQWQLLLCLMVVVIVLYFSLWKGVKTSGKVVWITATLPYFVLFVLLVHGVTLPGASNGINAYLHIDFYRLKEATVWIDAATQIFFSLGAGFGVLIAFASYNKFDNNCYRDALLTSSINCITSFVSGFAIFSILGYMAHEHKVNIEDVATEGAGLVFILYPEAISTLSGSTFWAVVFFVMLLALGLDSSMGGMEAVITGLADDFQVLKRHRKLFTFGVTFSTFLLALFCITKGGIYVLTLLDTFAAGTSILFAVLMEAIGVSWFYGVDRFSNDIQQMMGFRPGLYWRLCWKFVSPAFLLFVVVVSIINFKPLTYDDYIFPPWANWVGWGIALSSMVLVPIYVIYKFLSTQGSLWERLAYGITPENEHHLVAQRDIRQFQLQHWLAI

[15] = tested on: primary HTM cells; assay: TGF-β2-induced expression of fibrogenic markers, immunofluorescence; format: cell-based, human; conditions: 500 nM netarsudil plus 8 ng/mL TGF-β2, 24 h
Method: Cells were grown on gelatin (2%)-coated coverslips until they were semi-confluent. […] The cells were then assessed for induction of the fibrogenic markers α-smooth muscle actin (α-SMA), Collagen I, and fibroblast-specific protein 1 (FSP1) using immunofluorescence staining as previously described.[29] Mouse monoclonal antibody against α-SMA was purchased from Sigma-Aldrich, rabbit anti-FSP1 antibody from EMD Millipore (Billerica, MA), and rabbit anti-Collagen I antibody from Abcam (Cambridge, MA).

[16] = In vitro corneal metabolism, dog; format: in vitro ADME, beagle dogs; conditions: beagle, corneal tissue punches, 37°C, pH 6.5, read-out: t1/2 of corneal metabolism
Method: as §1, §2

[17] = tested on: normotensive Formosan Rock monkeys; assay: Ocular hypotensive activity (IOP) in monkeys; conditions: for maximal IOP reduction: once daily, Day 3, at 4 or 8 h after dosing; for IOP reduction: Day 3
[18] = tested on: live monkeys; parameters: method as in PMID 25535688; conditions: 6 h after topical dosing, 0.04%; cited from earlier work
[19] = In vitro corneal metabolism, rabbit; format: in vitro ADME, Dutch Belted rabbits; conditions: Dutch Belted, corneal tissue punches, 37°C, pH 6.5, read-out: t1/2 of corneal metabolism
Method: as §1, §2

## Cc1ccc(C(=O)OCc2ccc([C@@H](CN)C(=O)Nc3ccc4cnccc4c3)cc2)c(C)c1 [Netarsudil]
[1]
  IC50: 0.079 µM
[2]
  adverse effect noted (hyperemia): trace to mild hyperemia was the only adverse effect noted
[3]
  Ki: 5.31 µM
[4]; 0.005% solution
  maximal IOP reduction: 2.5 ± 0.2 mmHg
[4]; 0.01% solution
  maximal IOP reduction: 4.6 ± 0.2 mmHg
[4]; 0.02% solution
  maximal IOP reduction: 5.0 ± 0.6 mmHg
[4]; 0.04% solution
  maximal IOP reduction: 8.1 ± 0.7 mmHg
[4]; 0.04%, 8 h after dosing on Day 3
  IOP reduction: 8.1 ± 0.7 mmHg
[4]; Day 1
  time of peak IOP-lowering efficacy after dosing: 8 h
[4]; rabbits
  time IOP reductions were sustained after once daily dosing: at least 24 h
[5]
  Ki: 0.092 µM
[6]
  half-life at 200 µM: 1.82 h
[7]
  persistence of hyperemia after dosing: 4 to 8 h
[7]; once daily for 3 days
  hyperemia (scored 0 to 3, none to severe): trace (+0.5) to mild hyperemia (+1)
[8]
  half-life at 200 µM: 2.92 h
[9]
  IC50: 0.016 µM
[10]
  patients scored as having no hyperemia or trace hyperemia: 65% to 76
[11]
  half-life at 200 µM: 2.6 h
[12]
  AH half-life of related radioactivity, longer than that for AR-12286: ~60%
[12]; topical or ocular
  Tmax in AH: 8 h
  terminal elimination half-life (T1/2,e) in AH: 16 to 17 h
[13]; after topical netarsudil 0.02%, below the limit of detection in all but 1 of the 24 samples
  concentration in AH: < 0.1 ng/mL
[13]; male, New Zealand, rabbit, aqueous humor, topical, 0.02 %, read-out: concentration in AH, single sample above limit of detection
  concentration at 4 h: 1.82 ng/mL
[14]
  NET inhibitory activity: possesses NET inhibitory activity
[15]
  induction of fibrogenic markers α-SMA, FSP1 and Collagen I by TGF-β2: abolished the induction of these markers by TGF-β2
[16]
  half-life at 200 µM: 1.63 h
[17]; 0.01% solution
  maximal IOP reduction: 4.2 ± 0.2 mmHg
[17]; 0.02% solution
  maximal IOP reduction: 5.8 ± 0.3 mmHg
[17]; 0.04%
  time for which full IOP-lowering effect was maintained after dosing: 24 h
[17]; 0.04% solution
  maximal IOP reduction: 7.5 ± 1.1 mmHg
[17]; 0.04%, 4 h after dosing
  IOP reduction: 7.5 ± 0.7 mmHg
[17]; 0.04%, 24 h after dosing
  IOP reduction: 7.5 ± 1.1 mmHg
[17]; monkeys
  time IOP reductions were sustained after once daily dosing: at least 24 h
[18]
  increase in tonographic outflow facility: 53%
[19]
  half-life at 200 µM: 2.33 h
